Source: patent publication US20240254138A1, “TRICYCLIC PYRIMIDINES AS CYCLIN-DEPENDENT KINASE 7 (CDK7) INHIBITORS” (JANSSEN PHARMACEUTICA NV, priority 2021, published 2024)
Read-outs that look alike come from different tables or passages of the source.

Legend:
[1] = test system: RNA Polymerase II Serine 5 phosphorylation in A549 cells overexpressing CDK7-mutant (C312S); test: Imaging-based cellular RNA PolII Ser5 phosphorylation assay in A549 cells overexpressing CDK7-mutant (C312S); format: cell-based, human; conditions: RNA PolII Ser5 phosphorylation, averaged over all measurements; for IC50: Homo sapiens, A549, A549 cells overexpressing CDK7-mutant (C312S), read-out: CDK7_A549 mutant hCDK7(pIC50) (converted); for CDK7_A549 mutant hCDK7(pIC50): A549 cells overexpressing CDK7-mutant (C312S)
How it was run: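 A549 cells overexpressing CDK7 C312S (with endogenous wild-type CDK7) were treated with compound for 3 h at 37 °C in 1% FBS medium. Phospho-Rpb1 CTD Ser5 was immunostained after fixation and imaged. IC50 came from curve fit of % control, normalised to DMSO and 10 μM reference-compound controls.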

[2] = test system: RNA Polymerase II Serine 5 phosphorylation (Rpb1 CTD, downstream substrate of CDK7) in A549 cells; test: Imaging-based cellular RNA PolII Ser5 phosphorylation assay in A549 cells; format: cell-based, human; conditions: wild-type CDK7, RNA PolII Ser5 phosphorylation, averaged over all measurements; for IC50: Homo sapiens, A549, A549 cells, read-out: CDK7_A549 Wild-type CDK7 (pIC50) (converted); for CDK7_A549 Wild-type CDK7 (pIC50): A549 cells
How it was run: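 A549 cells, seeded 1000/well in DMEM with 1% FBS and cultured 20 h, were treated with compound for 3 h at 37 °C. Ser5-phospho-Rpb1 CTD detected by immunofluorescence imaging after fixation and methanol permeabilization; IC50 from curve fit normalized to DMSO and 10 μM reference-compound controls.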

[3] = target: CDK7/cyclinH/MAT1 trimeric complex (Homo sapiens, UniProt P50613); test: In vitro CDK7 assay, potency of irreversible covalent inhibitors (kinact/KI), coupled PK/LDH ADP readout at 340 nm; conditions: for Ki: CDK7 (20 nM enz.) (KI, μM); for kinact: read-out: CDK7 (20 nM enz.) (kinact, s^−1), 20 nM enzyme
Chain of CDK7/cyclinH/MAT1 trimeric complex (P50613 whole entry): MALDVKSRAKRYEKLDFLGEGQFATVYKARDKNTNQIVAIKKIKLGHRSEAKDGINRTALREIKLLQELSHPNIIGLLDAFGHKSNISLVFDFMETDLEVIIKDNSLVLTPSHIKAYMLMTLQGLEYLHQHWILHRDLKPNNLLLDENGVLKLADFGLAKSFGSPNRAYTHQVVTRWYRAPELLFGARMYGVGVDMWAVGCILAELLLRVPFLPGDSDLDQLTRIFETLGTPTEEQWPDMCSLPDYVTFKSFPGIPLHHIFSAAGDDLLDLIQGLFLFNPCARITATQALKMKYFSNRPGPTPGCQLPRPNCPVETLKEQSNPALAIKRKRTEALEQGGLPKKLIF
Chain of CDK7/cyclinH/MAT1 trimeric complex (P51946 whole entry partner): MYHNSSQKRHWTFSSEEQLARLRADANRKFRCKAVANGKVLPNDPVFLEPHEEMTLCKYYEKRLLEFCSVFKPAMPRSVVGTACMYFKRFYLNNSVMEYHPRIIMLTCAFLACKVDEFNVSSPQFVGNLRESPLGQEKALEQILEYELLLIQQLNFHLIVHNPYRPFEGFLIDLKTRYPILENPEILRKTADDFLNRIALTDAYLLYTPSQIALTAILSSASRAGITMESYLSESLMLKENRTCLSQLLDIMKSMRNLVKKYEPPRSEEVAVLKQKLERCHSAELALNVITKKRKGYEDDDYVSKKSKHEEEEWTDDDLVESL
Chain of CDK7/cyclinH/MAT1 trimeric complex (P51948 whole entry partner): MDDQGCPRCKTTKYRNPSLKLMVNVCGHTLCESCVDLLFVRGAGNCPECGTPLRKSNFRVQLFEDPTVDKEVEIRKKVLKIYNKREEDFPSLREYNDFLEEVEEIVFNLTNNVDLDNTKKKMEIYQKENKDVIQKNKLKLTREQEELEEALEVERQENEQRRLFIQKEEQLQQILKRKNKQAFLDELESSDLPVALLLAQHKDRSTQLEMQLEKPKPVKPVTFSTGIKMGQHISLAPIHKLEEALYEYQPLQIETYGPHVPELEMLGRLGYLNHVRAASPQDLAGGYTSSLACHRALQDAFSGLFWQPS

[4] = read-out: CDK7 (20 nM enz.) (kobs/[I], M^−1*s^−1), 20 nM enzyme
[5] = read-out: CDK7 (20 nM enz.) (kinact/KI, M^−1*s^−1), 20 nM enzyme

Structure (SMILES)	IC50 [1] [nM]	IC50 [2] [nM]	kinact/KI [3, 4] [M⁻¹ s⁻¹]	Ki ([3]; 20 nM enzyme) [µM]	kinact [3] [s⁻¹]	kinact/KI [3, 5] [M⁻¹ s⁻¹]	CDK7_A549 mutant hCDK7(pIC50) [1]	CDK7_A549 Wild-type CDK7 (pIC50) [2]	CDK7 (20 nM enz.) (kinact/KI, M^−1*s^−1) ([3]; 20 nM enzyme) [M⁻¹ s⁻¹]	CDK7 (20 nM enz.) (kinact, s^−1) ([3]; 20 nM enzyme) [s⁻¹]	CDK7 (20 nM enz.) (kobs/[I], M^−1*s^−1) ([3]; 20 nM enzyme) [M⁻¹ s⁻¹]
C=CC(=O)Nc1ccc(-c2ccc3c(c2)Nc2nccc(N4CCOCC4)c2CO3)cn1 [Compound 178]	6760	22.4	1910	–	–	–	–	–	–	–	–
C=C(F)C(=O)N1CC(N2CCC(c3ccc4c(c3)Nc3nccc(C5CCOCC5)c3CO4)CC2)C1 [Compound 188]	> 10000	1070	–	0.507	3.02e-05	59.6	–	–	–	–	–
C=CC(=O)N1CC(N2CCC(c3cc(F)c4c(c3)Nc3nccc(-c5cnn(C)c5)c3CO4)CC2)C1 [Compound 189]	–	–	1440	–	–	–	<5	7.37	–	–	–
C=CC(=O)N1CC(n2cc(-c3cc(C)c4c(c3)Nc3nccc(N5CCOCC5)c3CO4)cn2)C1 [Compound 190]	~8910	33.9	1250	–	–	–	–	–	–	–	–
C=CC(=O)N1CC(N2CC(c3ccc4c(c3)Nc3nccc(-c5cnn(C)c5)c3C(C)O4)C2)C1 (stereo not shown) [Compound 197]	> 10000	123	–	0.134	7.96e-05	596	–	–	–	–	–
C=CC(=O)N1CC(N2CC(c3cc4c(c(C)n3)OCc3c(-c5cnn(C)c5)ccnc3N4)C2)C1 [Compound 198]	> 10000	240	–	0.365	4.47e-05	122	–	–	–	–	–
C=CC(=O)N1CCC2(CC1)CC(c1cc(F)c3c(c1)Nc1nccc(N4CCOCC4)c1CO3)C2 [Compound 250]	> 10000	1820	–	0.564	1.06e-05	18.9	–	–	–	–	–
C=CC(=O)N1CC(N2CCC(c3ccc4c(c3)Nc3nccc(-c5cnn(C)c5)c3C(C)(C)O4)CC2)C1 [Compound 260]	–	–	–	0.0256	–	–	<5	7.1	1810.44	4.64e-05	–
CC#CC(=O)N1CC(N2CCC(c3ccc4c(c3)Nc3nccc(C5CCOCC5)c3CO4)CC2)C1 [Compound 269]	> 10000	162	–	0.103	4.28e-05	417	–	–	–	–	–
CC#CC(=O)N1CCC(N2CC(c3cc(C)c4c(c3)Nc3nccc(C5CCOCC5)c3CO4)C2)C1 (stereo not shown) [Compound 274]	> 10000	174	–	0.0714	3.45e-05	483	–	–	–	–	–
CC#CC(=O)N1CC(c2nc(C)c(-c3cc4c(c(C)n3)OCc3c(N5CCOCC5)ccnc3N4)c(C)n2)C1 [Compound 278]	> 10000	166	–	0.226	3.13e-05	139	–	–	–	–	–
C=CC(=O)N1CC(n2cc(-c3cc(C#N)c4c(c3)Nc3nccc(N5CCOCC5)c3CO4)cn2)C1 [Compound 285]	1860	19.5	964	–	–	–	–	–	–	–	–
C=CC(=O)N1CC(N2CCC(c3cc4c(c(C#N)n3)OCc3c(-c5cnn(C)c5)ccnc3N4)CC2)C1 [Compound 298]	> 10000	263	–	0.0311	8.92e-05	2870	–	–	–	–	–
C=CC(=O)N1CCC(N2CC(c3cc4c(c(C)n3)OCc3c(N5CCOCC5)ccnc3N4)C2)CC1 [Compound 303]	6170	91.2	–	0.0492	2.35e-05	477	–	–	–	–	–

Next, values leading:

IC50 [1] [nM]	IC50 [2] [nM]	kinact/KI [3, 4] [M⁻¹ s⁻¹]	Ki ([3]; 20 nM enzyme) [µM]	kinact [3] [s⁻¹]	kinact/KI [3, 5] [M⁻¹ s⁻¹]	CDK7_A549 mutant hCDK7(pIC50) [1]	CDK7_A549 Wild-type CDK7 (pIC50) [2]	CDK7 (20 nM enz.) (kinact/KI, M^−1*s^−1) ([3]; 20 nM enzyme) [M⁻¹ s⁻¹]	CDK7 (20 nM enz.) (kinact, s^−1) ([3]; 20 nM enzyme) [s⁻¹]	CDK7 (20 nM enz.) (kobs/[I], M^−1*s^−1) ([3]; 20 nM enzyme) [M⁻¹ s⁻¹]	Structure (SMILES)
> 10000	~20.9	864	–	–	–	–	–	–	–	–	C#Cc1cc(C2CCN(C3CN(C(=O)C=C)C3)CC2)cc2c1OC(C)c1c(N3CCOCC3)ccnc1N2 (stereo not shown) [Compound 181]
> 10000	93.3	–	0.119	4.74e-05	–	–	–	399.588	–	–	C=CC(=O)N1CC(N2CC(c3cc4c(c(C)n3)OCc3c(N5CCOCC5)ccnc3N4)C2)C1 [Compound 205]
> 10000	64.6	753	–	–	–	–	–	–	–	–	C=CC(=O)N1CC(N2CC(c3cc(C)c4c(c3)Nc3nccc(N5CCOCC5)c3CO4)C2)C1 [Compound 215]
–	–	–	0.101	–	–	<5	7.15	845.246	8.548e-05	–	C=CC(=O)N1CC(N2CCC(c3cc4c(c(C)n3)OCc3c(N5CCOCC5)ccnc3N4)CC2)C1 [Compound 217]
> 10000	126	–	0.337	6.24e-05	185	–	–	–	–	–	C=CC(=O)N1CC[C@H](N2CC(c3cc4c(c(C)n3)OCc3c(N5CCOCC5)ccnc3N4)C2)[C@H](F)C1 [Compound 225]
9550	70.8	–	–	–	–	–	–	–	–	962.5	C=CC(=O)N1CC(N2CC(c3cc4c(c(C(F)(F)F)n3)OCc3c(N5CCOCC5)ccnc3N4)C2)C1 [Compound 235]
> 10000	132	–	0.0731	3.42e-05	468	–	–	–	–	–	C=CC(=O)N1CC(N2CCN(c3cc4c(c(C)n3)OCc3c(N5CCOCC5)ccnc3N4)CC2)C1 [Compound 237]
~7940	72.4	–	0.0398	4.37e-05	1100	–	–	–	–	–	C=CC(=O)N1CC(n2cc(-c3cc4c(c(C)n3)OCc3c(N5CCOCC5)ccnc3N4)cn2)C1 [Compound 244]
> 10000	174	–	0.307	8.51e-05	277	–	–	–	–	–	C=CC(=O)N1CC(N2CCN(c3cc4c(cn3)OCc3c(N5CCOCC5)ccnc3N4)CC2)C1 [Compound 248]
6310	50.1	989	–	–	–	–	–	–	–	–	C=CC(=O)N1CC(N2CC(c3cc(C#N)c4c(c3)Nc3nccc(N5CCOCC5)c3CO4)C2)C1 [Compound 253]
> 10000	~138	–	0.0439	3.44e-05	782	–	–	–	–	–	C=CC(=O)N1CC(N2CC(c3cc4c(c(C)n3)OC(C)c3c(N5CCOCC5)ccnc3N4)C2)C1 (stereo not shown) [Compound 264]
~7240	23.4	977	–	–	–	–	–	–	–	–	C=CC(=O)N1CC(N2CC(c3cc4c(c(C(F)(F)F)c3)OCc3c(N5CCOCC5)ccnc3N4)C2)C1 [Compound 267]
–	–	–	0.0474	–	–	<5	6.94	945.57	4.486e-05	–	C=CC(=O)N1CC(N2CC(c3cc4c(c(C)n3)OCc3c(N5CCOCC5)ccnc3N4)C2)C1 [Compound 273]
> 10000	87.1	921	–	–	–	–	–	–	–	–	C=CC(=O)N1CC(N2CCC(c3cc4c(c(-c5ncc[nH]5)c3)OCc3c(N5CCOCC5)ccnc3N4)CC2)C1 [Compound 275]
> 10000	295	–	0.0265	3.61e-05	1360	–	–	–	–	–	C=CC(=O)N1CC(N2CC(c3cc4c(c(C#N)n3)OCc3c(N5CCOCC5)ccnc3N4)C2)C1 [Compound 290]
5370	77.6	–	0.0471	2.02e-05	427	–	–	–	–	–	CC#CC(=O)N1CCC(N2CC(c3cc4c(c(C)n3)OCc3c(N5CCOCC5)ccnc3N4)C2)CC1 [Compound 313]
